Assay [1] concerns the target T1, EGFR L858R/T790M/C797S kinase (EGFR^LTC) (Homo sapiens, UniProt P00533, C797S/L858R/T790M). The assay is described as follows: HTRF KINASE-TK in vitro kinase inhibition assay, dose response. The assay is classed as biochemical. (In general: Time-resolved FRET reads energy transfer from a long-lived donor to a nearby acceptor.)
For assay [2], the target named is T1, EGFR L858R/T790M/C797S kinase (EGFR^LTC). The assay is described as follows: biochemical. Set-up: HTRF KINASE-TK inhibition assay, EGFR L858R/T790M/C797S, ATP about Km, dose response. As for the experimental part:
A total of 25 nL of each compound was transferred to a 384-well reaction plate (Greiner, Cat#784075) using an Echo655 acoustic dispenser. […] The kinase solution was prepared in 1× kinase reaction buffer (comprising 5 mM MgCl₂, 1 mM DTT, and 1 mM MnCl₂), and 2.5 μL of this solution was added to each well. The plate was centrifuged at 140 g for 1 min and incubated at 25 °C for 10 min. […] This ATP level was selected in accordance with the Cheng-Prusoff equation (where ATP = Km, IC50 = 2Ki) to accurately reflect the inhibitory potency of test compounds. Then, 2.5 μL of the substrate-ATP mixture was added to each well, followed by centrifugation at 140 g for 1 min. The plate was sealed and incubated at 25 °C for 50 min. Subsequently, a 2× detection reagent mixture containing XL665 and anti-phospho-tyrosine antibody in detection buffer was prepared, and 5 μL of this solution was added to each well. The plate was centrifuged again (140 g, 1 min) and incubated at 25 °C for 60 min. Fluorescence emissions at 620 nm (Cryptate) and 665 nm (XL665) were measured using a microplate reader. Each assay condition was tested in duplicate. […] This was achieved by fitting the calculated percentage inhibition and the logarithm of the compound concentrations to a variable slope (four-parameter) nonlinear regression model. The model is expressed by the equation:3 Y=Bottom+Top−Bottom/1+10^LogIC50−X×Hill slope where X denotes the log of the inhibitor concentration and Y represents the percentage inhibition. Furthermore, the percentage of enzymatic activity in the presence of inhibitors, expressed as % Control, is derived by subtracting the % Inhibition from 100%.

T1 sequence (P00533 669-1210 T790M/C797S/L858R limits assumed): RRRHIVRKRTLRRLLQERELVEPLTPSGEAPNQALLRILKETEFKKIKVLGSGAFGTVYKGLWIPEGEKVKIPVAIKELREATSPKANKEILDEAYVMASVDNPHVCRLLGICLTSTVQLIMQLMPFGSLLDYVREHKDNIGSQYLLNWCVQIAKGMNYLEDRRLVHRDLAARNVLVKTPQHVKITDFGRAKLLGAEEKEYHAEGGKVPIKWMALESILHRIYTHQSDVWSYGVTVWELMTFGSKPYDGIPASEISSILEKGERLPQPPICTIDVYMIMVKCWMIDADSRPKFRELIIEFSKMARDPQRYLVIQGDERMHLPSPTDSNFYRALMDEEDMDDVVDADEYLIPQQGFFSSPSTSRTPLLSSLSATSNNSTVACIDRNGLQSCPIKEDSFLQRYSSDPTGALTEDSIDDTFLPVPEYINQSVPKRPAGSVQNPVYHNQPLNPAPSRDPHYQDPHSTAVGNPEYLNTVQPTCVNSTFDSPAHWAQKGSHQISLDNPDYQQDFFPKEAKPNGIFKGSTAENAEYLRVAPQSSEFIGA

As a reminder, the IC50 is the concentration that inhibits the measured activity by half. A low value points to higher potency. `CC(=O)c1cnc2ccc(-c3cc(Cl)c(O)c(Cl)c3)nc2c1N[C@H]1CC[C@H](CN(C)C)CC1` [C1]: in assay [1], the half-inhibitory concentration (IC50) is 0.0055 µM.
On to `COc1cc2nccc(Oc3ccc(NC(=O)c4cn(C(C)C)c(=O)n(-c5ccc(F)cc5)c4=O)cc3F)c2cc1OC` [C5], for which the IC50 in assay [1] is below 10 µM; in assay [2], 2.74 µM.
`COc1cc(N2CCC(N(C)C)CC2)ccc1Nc1ncc(Cl)c(Nc2ccccc2P(C)(C)=O)n1` [C10] returned a 50% inhibitory concentration (IC50) in assay [1] of 0.0012 µM.
In assay [2], `CC1(C)CCC(CN2CCN(c3ccc(C(=O)NS(=O)(=O)c4ccc(NCC5CCOCC5)c([N+](=O)[O-])c4)c(Oc4cnc5[nH]ccc5c4)c3)CC2)=C(c2ccc(Cl)cc2)C1` [C3] had a half-inhibitory concentration (IC50) above 10 µM.
On the same count and under the same terms, in the case of `N[C@@H]1c2cccnc2[C@H](OC(=O)N2CCC(n3c(=O)[nH]c4ncccc43)CC2)CC[C@H]1c1cccc(F)c1F` [C8] it was above 10 µM.
As for `CCc1cc(Nc2nccc(-c3c(-c4ccc(OC)c(C(=O)Nc5c(F)cccc5F)c4)nc4ccccn34)n2)c(OC)cc1N1CCC(N2CCN(S(C)(=O)=O)CC2)CC1` [C7], the half-inhibitory concentration (IC50) was below 10 µM in assay [1] and 3.58 µM in assay [2].
As to `CN(C)CC#Cc1ccc(OCCCc2sc(N3CCc4cccc(C(=O)Nc5nc6ccccc6s5)c4C3)nc2C(=O)O)c(F)c1` [C2], the IC50 in assay [2] is above 10 µM.
Still for that read-out and setting: in the case of `CC(C)N(C[C@H]1O[C@@H](n2cnc3c(N)ncnc32)[C@H](O)[C@@H]1O)[C@H]1C[C@@H](CCc2nc3cc(C(C)(C)C)ccc3[nH]2)C1` [C6] it was above 10 µM; in that of `CC(=O)O[C@]1(C(C)=O)CC[C@H]2[C@@H]3CCC4=CC(=O)CCC4=C3[C@@H](c3ccc(N(C)C)cc3)C[C@@]21C` [C9], above 10 µM.
Turning to `N#Cc1ccnc(Nc2cc(C3CCN(C4COC4)CC3)cc(N3CCC(F)(F)C3)n2)c1` [C11], the half-inhibitory concentration (IC50) was below 10 µM in assay [1] and 0.106 µM in assay [2].

Source of the values: PMC12304311, “Sequence-based virtual screening using transformers” (Nature Communications, 2025).
